Consider 35 compounds from patent publication US7452905B2, “Phenylalanine derivatives” (Ajinomoto Co., Inc., priority 2000, dated 2008).

T1 sequence (P13612 34-1032): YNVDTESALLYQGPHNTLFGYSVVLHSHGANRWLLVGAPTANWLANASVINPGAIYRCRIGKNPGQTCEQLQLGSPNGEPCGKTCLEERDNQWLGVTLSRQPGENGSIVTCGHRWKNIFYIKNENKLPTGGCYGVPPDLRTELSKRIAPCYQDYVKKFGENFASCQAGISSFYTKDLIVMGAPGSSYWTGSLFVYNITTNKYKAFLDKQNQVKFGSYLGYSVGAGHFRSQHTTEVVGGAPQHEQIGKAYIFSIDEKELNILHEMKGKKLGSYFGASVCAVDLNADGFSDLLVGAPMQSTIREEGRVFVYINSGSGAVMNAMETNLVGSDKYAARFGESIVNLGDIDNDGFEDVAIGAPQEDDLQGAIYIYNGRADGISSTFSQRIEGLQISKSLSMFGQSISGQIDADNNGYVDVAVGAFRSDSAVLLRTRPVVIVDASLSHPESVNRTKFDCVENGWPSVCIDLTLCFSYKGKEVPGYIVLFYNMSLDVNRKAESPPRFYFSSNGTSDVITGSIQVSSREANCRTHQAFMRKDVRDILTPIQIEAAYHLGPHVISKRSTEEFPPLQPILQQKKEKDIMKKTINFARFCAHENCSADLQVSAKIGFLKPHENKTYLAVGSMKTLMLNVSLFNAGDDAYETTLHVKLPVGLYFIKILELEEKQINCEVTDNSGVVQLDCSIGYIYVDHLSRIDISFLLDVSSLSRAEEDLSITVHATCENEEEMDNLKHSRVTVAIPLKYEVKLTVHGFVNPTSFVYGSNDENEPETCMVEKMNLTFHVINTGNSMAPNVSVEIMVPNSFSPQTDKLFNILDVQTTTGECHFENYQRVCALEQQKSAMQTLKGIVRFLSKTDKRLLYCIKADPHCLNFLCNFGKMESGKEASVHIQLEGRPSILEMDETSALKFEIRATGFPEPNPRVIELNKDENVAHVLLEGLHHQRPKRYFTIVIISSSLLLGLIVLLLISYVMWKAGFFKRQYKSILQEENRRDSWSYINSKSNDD
T1 sequence (P05556 21-798): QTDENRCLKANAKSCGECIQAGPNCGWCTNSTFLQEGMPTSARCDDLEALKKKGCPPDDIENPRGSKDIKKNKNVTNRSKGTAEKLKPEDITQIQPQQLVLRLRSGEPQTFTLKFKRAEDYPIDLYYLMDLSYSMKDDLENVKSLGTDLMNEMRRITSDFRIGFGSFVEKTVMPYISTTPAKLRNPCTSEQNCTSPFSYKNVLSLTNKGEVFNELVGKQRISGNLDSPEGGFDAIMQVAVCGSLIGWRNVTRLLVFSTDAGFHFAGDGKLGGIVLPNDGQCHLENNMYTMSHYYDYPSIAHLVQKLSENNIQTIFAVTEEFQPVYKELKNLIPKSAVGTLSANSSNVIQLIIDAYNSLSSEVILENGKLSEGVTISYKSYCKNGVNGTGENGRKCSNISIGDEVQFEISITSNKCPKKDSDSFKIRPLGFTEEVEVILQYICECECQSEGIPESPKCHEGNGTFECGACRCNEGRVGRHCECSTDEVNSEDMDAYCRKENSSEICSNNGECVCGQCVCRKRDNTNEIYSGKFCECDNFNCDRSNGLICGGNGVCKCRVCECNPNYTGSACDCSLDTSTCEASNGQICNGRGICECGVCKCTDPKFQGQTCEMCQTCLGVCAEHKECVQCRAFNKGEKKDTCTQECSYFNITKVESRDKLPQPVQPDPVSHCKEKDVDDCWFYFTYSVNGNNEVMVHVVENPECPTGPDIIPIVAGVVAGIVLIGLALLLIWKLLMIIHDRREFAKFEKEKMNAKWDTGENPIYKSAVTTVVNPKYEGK

The assay concerns the target T1, integrin α4 β1 (Homo sapiens, UniProt P05556+P13612).
T1 construct: cell strain Jurkat (ATCC TIB-152) of human T cells, known to express integrin α4 β1; endogenous in cells; host or cells: Jurkat (ATCC TIB-152)
Briefly: VCAM antagonist activity (VCAM-1/α4β1 binding assay), Jurkat cells binding to VCAM-1. To be noted: Jurkat cells binding to recombinant human VCAM-1; 50% binding inhibition; read-out: Antagonistic Activity IC50 α 4 β 1/VCAM. The format is cell-based. Here is the method:
VCAM Antagonist Activity (VCAM-1/α4β1 Binding Assay)
The capacity of a test substance antagonistic to the binding of cell strain Jurkat (ATCC TIB-152) of human T cells, known to express integrin α4 β1, to VCAM-1 was determined. 100 μl/well of a solution (500 ng/ml) of recombinant human VCAM-1 (R & D systems) solution diluted with buffer A (0.1 M NaHCO3, pH 9.6) was added to a micro titer plate having 96 wells (Nunc Maxisorp). After the incubation at 4° C. overnight, unbound VCAM-1 was removed by washing once with PBS. After completion of the washing, a buffer (buffer B) obtained by diluting Block Ace (Dainippon Pharmaceutical Co., Ltd.) with PBS to ¼ concentration was added in an amount of 150 μl/well. After the incubation at room temperature for 1 hour, buffer B was removed and the plate was washed with PBS once.
Jurkat cells were washed with Dulbecco modified Eagle medium (SIGMA, hereinafter referred to as “DMEM”) twice and then incubated in DMEM containing 10 μg/ml of Calcein-AM (Wako Pure Chemical Industries, Ltd.) at 37° C. in dark place for 30 minutes to label with fluorescence. The cells were again suspended in a binding buffer (20 mM HEPES, DMEM containing 0.1% BSA).
50 μl of a test substance of various concentrations obtained by the dilution with the binding buffer was added to the plate. Immediately thereafter, 50 μl (final volume: 100 μl well) of the fluorescent Jurkat cells (4×10^6 cells/ml) were added thereto, and they were incubated at room temperature for 30 minutes. After the shaking on a plate shaker (IKA MTS-4) at 800 rpm for 30 seconds, the solution was immediately removed to remove the unbound cells. The fluorescence quantity of the bound cells remaining in the wells was determined with a fluorescent plate reader (Wallac 1420 ARVO multi-label counter) (filter excitation wave length: 485 nm, emission wave length: 535 nm). The fluorescent strength thus obtained is proportional to the number of Jurkat cells bound to VCAM-1 and remaining on the plate. The binding rate of each test material in various concentrations was determined while the fluorescent strength of the test material-free well was determined to be 100%. The concentration IC50 for the 50% binding inhibition was calculated.
Regarding `O=C(N[C@@H](Cc1ccc(N2C(=O)c3ccccc3C2=O)cc1)C(=O)O)c1c(Cl)cccc1Cl` [Example 1], the IC50 was 210 nM.
The result for `Cc1ccc2c(c1)C(=O)N(c1ccc(C[C@H](NC(=O)c3c(Cl)cccc3Cl)C(=O)O)cc1)C2=O` [Example 6] reads 240 nM; that for `O=C(N[C@@H](Cc1ccc(N2C(=O)c3ccc([N+](=O)[O-])cc3C2=O)cc1)C(=O)O)c1c(Cl)cccc1Cl` [Example 9], 170 nM.
Take `O=C(N[C@@H](Cc1ccc(N2C(=O)Cc3ccccc3C2=O)cc1)C(=O)O)c1c(Cl)cccc1Cl` [Example 15]: the IC50 came out at 740 nM.
Turning to `O=C(N[C@@H](Cc1ccc(N2C(=O)c3cccc4cccc(c34)C2=O)cc1)C(=O)O)c1c(Cl)cccc1Cl` [Example 16], the IC50 is 1100 nM.
In the case of `O=C(N[C@@H](Cc1ccc(N2Cc3ccccc3C2=O)cc1)C(=O)O)c1c(Cl)cccc1Cl` [Example 17], the IC50 worked out at 1900 nM.
On to `O=C(N[C@@H](Cc1ccc(N2CC=CC2=O)cc1)C(=O)O)c1c(Cl)cccc1Cl` [Example 25], for which the IC50 came out at 5000 nM.
Consider `O=C(N[C@@H](Cc1ccc(N2CC=CCC2=O)cc1)C(=O)O)c1c(Cl)cccc1Cl` [Example 26], for which the IC50 worked out at 5300 nM.
The result for `O=C(N[C@@H](Cc1ccc(N2CC=CCCC2=O)cc1)C(=O)O)c1c(Cl)cccc1Cl` [Example 27] reads 2800 nM; that for `Cc1ccc(C)c2c1C(=O)N(c1ccc(C[C@H](NC(=O)c3c(Cl)cccc3Cl)C(=O)O)cc1)C2=O` [Example 30], 450 nM; that for `CN(C)C(=O)c1ccc2c(c1)C(=O)N(c1ccc(C[C@H](NC(=O)c3c(Cl)cccc3Cl)C(=O)O)cc1)C2=O` [Example 33], 260 nM.
On to `O=C(N[C@@H](Cc1ccc(N2C(=O)C3=C(CCCC3)C2=O)cc1)C(=O)O)c1c(Cl)cccc1Cl` [Example 37], for which the IC50 was 140 nM.
On to `O=C(N[C@@H](Cc1ccc(N2C(=O)C3=C(SCCS3)C2=O)cc1)C(=O)O)c1c(Cl)cccc1Cl` [Example 38], for which the IC50 was 220 nM.
`O=C(N[C@@H](Cc1ccc(N2C(=O)[C@@H]3CCCC[C@H]3C2=O)cc1)C(=O)O)c1c(Cl)cccc1Cl` [Example 40]: the IC50 is 240 nM.
On to `O=C(N[C@@H](Cc1ccc(N2C(=O)[C@@H]3[C@H](C2=O)[C@@H]2C=C[C@H]3C2)cc1)C(=O)O)c1c(Cl)cccc1Cl` [Example 42], for which the IC50 amounted to 560 nM.
Regarding `CC1CCC2C(=O)N(c3ccc(C[C@H](NC(=O)c4c(Cl)cccc4Cl)C(=O)O)cc3)C(=O)C2C1` (some centres unmarked) [Example 43], the IC50 was found to be 1600 nM.
As to `O=C(N[C@@H](Cc1ccc(N2C(=O)[C@@H]3[C@H](C2=O)[C@@H]2C=C[C@H]3CC2)cc1)C(=O)O)c1c(Cl)cccc1Cl` [Example 44], the IC50 came out at 1400 nM.
For `O=C(N[C@@H](Cc1ccc(N2C(=O)[C@H]3CC=CC[C@H]3C2=O)cc1)C(=O)O)c1c(Cl)cccc1Cl` [Example 45], the IC50 worked out at 1200 nM.
As for `O=C(N[C@@H](Cc1ccc(N2C(=O)C3CC3C2=O)cc1)C(=O)O)c1c(Cl)cccc1Cl` (some centres unmarked) [Example 46], the IC50 turned out to be 1700 nM.
Take `O=C(N[C@@H](Cc1ccc(N2C(=O)[C@H]3CC[C@H](c4ccccc4)C[C@H]3C2=O)cc1)C(=O)O)c1c(Cl)cccc1Cl` [Example 47]: the IC50 amounted to 2100 nM.
Regarding `O=C(N[C@@H](Cc1ccc(N2C(=O)CC3(CCCC3)CC2=O)cc1)C(=O)O)c1c(Cl)cccc1Cl` [Example 48], the IC50 is 1300 nM.
Consider `CC1(C)[C@H]2CC[C@]1(C)C(=O)N(c1ccc(C[C@H](NC(=O)c3c(Cl)cccc3Cl)C(=O)O)cc1)C2=O` [Example 49], for which the IC50 worked out at 2000 nM.
`Cc1cccc2c1C(=O)N(c1ccc(C[C@H](NC(=O)c3c(Cl)cncc3Cl)C(=O)O)cc1)C2=O` [Example 59]: the IC50 is 73 nM.
In the case of `Nc1cccc2c1C(=O)N(c1ccc(C[C@H](NC(=O)c3c(Cl)cccc3Cl)C(=O)O)cc1)C2=O` [Example 71], the IC50 is 410 nM.
On to `CCOc1cccc2c1C(=O)N(c1ccc(C[C@H](NC(=O)c3c(Cl)cccc3Cl)C(=O)O)cc1)C2=O` [Example 73], for which the IC50 came to 210 nM.
The result for `O=C(N[C@@H](Cc1ccc(N2C(=O)c3cccc(OCc4ccccc4)c3C2=O)cc1)C(=O)O)c1c(Cl)cccc1Cl` [Example 74] reads 1200 nM; that for `CCCCOc1cccc2c1C(=O)N(c1ccc(C[C@H](NC(=O)c3c(Cl)cccc3Cl)C(=O)O)cc1)C2=O` [Example 75], 790 nM.
For `O=C(N[C@@H](Cc1ccc(N2C(=O)c3ccc(O)cc3C2=O)cc1)C(=O)O)c1c(Cl)cccc1Cl` [Example 77], the IC50 amounted to 770 nM.
As to `COc1ccc2c(c1)C(=O)N(c1ccc(C[C@H](NC(=O)c3c(Cl)cccc3Cl)C(=O)O)cc1)C2=O` [Example 78], the IC50 came out at 520 nM.
The result for `CCOc1ccc2c(c1)C(=O)N(c1ccc(C[C@H](NC(=O)c3c(Cl)cccc3Cl)C(=O)O)cc1)C2=O` [Example 79] reads 570 nM.
On to `O=C(N[C@@H](Cc1ccc(N2C(=O)c3ccc(OCc4ccccc4)cc3C2=O)cc1)C(=O)O)c1c(Cl)cccc1Cl` [Example 80], for which the IC50 was 1100 nM.
Turning to `O=C(N[C@@H](Cc1ccc(N2C(=O)Cc3ccccc3CC2=O)cc1)C(=O)O)c1c(Cl)cccc1Cl` [Example 82], the IC50 amounted to 3500 nM.
Then `Cc1cccc2c1C(=O)N(c1ccc(C[C@H](NC(=O)c3c(Cl)cc(-c4nnn[nH]4)cc3Cl)C(=O)O)cc1)C2=O` [Example 83, (2S)-2-(2,6-dichloro-4-tetrazolyl-benzoylamino)-3-[4-(4-methyl-1,3-dioxo-1,3-dihydroisoindole-2-yl)phenyl] Propionic Acid], with 5.9 nM.
Consider `Cc1cccc2c1C(=O)N(c1ccc(C[C@H](NC(=O)c3c(Cl)cc(NS(C)(=O)=O)cc3Cl)C(=O)O)cc1)C2=O` [Example 84], for which the IC50 amounted to 15 nM.
Then `CC(=O)C1Cc2ccccc2C(=O)N1c1ccc(C[C@H](NC(=O)c2c(Cl)cccc2Cl)C(=O)O)cc1` (some centres unmarked) [Example 86], with 530 nM.
